According to US20260108442A1, “COMPOUND FOR USE IN PROTECTING SKIN” (TDELTAS LIMITED, priority 2013, published 2026):

Experiments:
[1] = test system: Human dermal fibroblast cells; test: Cell survival after UVB irradiation, Trypan blue exclusion; type: cell-based; details: viable cells at 48 hours after irradiation, FIG. 2
Protocol: Human dermal fibroblast cells were cultured in basal medium in 6-well plates at 50,000 cells per well. The cells were incubated in medium alone or with added 4 mM R-3-hydroxybutyl-(R)-3-hydroxybutyrate. After reaching 80-90% confluence, cells were washed with phosphate-buffered saline and the medium was replaced with a thin layer of Hanks buffer, (a balanced salt solution designed to use with cells in non-CO2 atmospheric conditions). Cells were irradiated at doses of 25, 50, 100, 150, 300 and 600 mJ/cm^2 using a portable UVB source (302 nm) with a fluence rate of 0.9 mW/cm^2 at cell level. UV irradiation was performed in a fume hood to maintain sterility. After irradiation, cells were washed and incubated in medium alone or with added 4 mM R-3-hydroxybutyl-(R)-3-hydroxybutyrate (as they had been before irradiation). Another group of irradiated cells, which had initially been grown in basal medium without deltaG, was incubated with added 4 mM R-3-hydroxybutyl-(R)-3-hydroxybutyrate. Cell survival was determined by counting viable cells using Trypan blue exclusion at 48 hours after irradiation.

[2] = test system: Primary human dermal fibroblasts (HDF); test: Live and dead assay (Calcein AM / EthD-III) of human dermal fibroblast growth; type: cell-based; details: 4 mM in basal medium, after 10 days incubation, FIG. 1
Protocol: Primary human dermal fibroblasts (HDF), with a seeding capacity of 2,500 cells/cm^2, […] (HF) basal medium (TCS Cellworks) or basal medium containing 4 mM of the ketone ester, deltaG. The basal medium was changed daily. Cell viability was determined using a live and dead assay kit, with two colour fluorescence staining of live and dead cells using the probes, Calcein AM and EthD-III.

hands of the user (skin) = test: Neat topical application to dry hands, visual inspection; type: in vivo; details: used neat, massaged into dry hands, inspected after 30 minutes
From the text: D-betahydroxybutyrate butanediol monoester was used neat in this experiment. The hands of the user were visually inspected prior to application of the D-betahydroxybutyrate butanediol monoester. […] D-betahydroxybutyrate butanediol monoester was applied to the hands and massaged in to the skin thoroughly.

C[C@@H](O)CCOC(=O)C[C@@H](C)O [R-3-hydroxybutyl-(R)-3-hydroxybutyrate]
protection from UVB radiation (cell survival) ([1]; 4 mM both before and after radiation exposure, compared with after radiation only): conferred no further benefit
protection from UVB radiation (cell survival) ([1]; 4 mM given to the cells after radiation, UVB 302 nm, doses between 150 and 600 mJ/cm^2, p<0.05): protected human dermal fibroblasts from UVB radiation
dead cells ([2]; compared with control): fewer dead cells
live cells ([2]; vs. 75% in control, P<0.05): 89%
visual inspection of hands (dryness, wrinkling, feel) (hands of the user (skin)): visually noticeable improvement in properties including less dryness, less wrinkling and an improved feel
